The values below come from patent publication US9598459B2, “Pharmaceutical compositions and methods” (priority 2015, dated 2017).

Several values for one entry are separate records, joined by “and”; a condition that tells them apart may be missing. Identical values can stand only once.

One data set concerns the target GR (Mus musculus, UniProt P06537). The following applies: cited from earlier work.
The conditions of data set [1]: rats, twice daily 4 mg kg−1 po; cited from earlier work.
A further data set concerns HG23. The following applies: human.
For another data set, the system named is HIV-1 LAV. Put plainly: Inhibition of inducible HIV-1 LAV replication in OM-10.1 (RT values). Type of data set: cell-based, human immunodeficiency virus type 1. The following applies: for RT Values: SAMPLE 1-3, MEAN.

Chain of GR (P06537 whole entry): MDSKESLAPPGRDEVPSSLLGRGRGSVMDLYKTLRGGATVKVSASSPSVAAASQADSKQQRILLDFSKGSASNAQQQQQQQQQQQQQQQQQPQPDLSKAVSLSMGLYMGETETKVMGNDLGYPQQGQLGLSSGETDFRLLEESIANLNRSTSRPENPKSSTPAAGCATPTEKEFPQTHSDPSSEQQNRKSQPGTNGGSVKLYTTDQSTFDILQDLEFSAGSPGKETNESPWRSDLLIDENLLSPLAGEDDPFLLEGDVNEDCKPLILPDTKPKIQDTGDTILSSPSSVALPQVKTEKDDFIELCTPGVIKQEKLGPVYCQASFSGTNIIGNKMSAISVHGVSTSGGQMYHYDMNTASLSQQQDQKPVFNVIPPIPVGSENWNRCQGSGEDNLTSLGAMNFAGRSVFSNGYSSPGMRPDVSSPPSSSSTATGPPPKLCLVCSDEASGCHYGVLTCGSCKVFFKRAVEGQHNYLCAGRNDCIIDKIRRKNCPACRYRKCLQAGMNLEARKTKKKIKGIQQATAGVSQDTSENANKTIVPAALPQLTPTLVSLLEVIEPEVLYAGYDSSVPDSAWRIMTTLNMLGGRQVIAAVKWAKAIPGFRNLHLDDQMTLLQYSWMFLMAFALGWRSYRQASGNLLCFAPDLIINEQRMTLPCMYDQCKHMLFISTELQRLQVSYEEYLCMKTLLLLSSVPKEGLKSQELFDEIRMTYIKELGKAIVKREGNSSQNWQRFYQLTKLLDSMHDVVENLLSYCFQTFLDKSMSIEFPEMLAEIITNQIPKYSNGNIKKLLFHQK

`CC#C[C@]1(O)CC[C@H]2[C@@H]3CCC4=CC(=O)CCC4=C3[C@@H](c3ccc4c(c3)OCO4)C[C@@]21C` [PT150, (11β,17β)-11-(1,3-benzodioxol-5-yl)-17-hydroxy-17-(1-propynyl)-estra-4,9-dien-3-one]: on GR, the “block of corticosterone-induced GR translocation” value is “able to block corticosterone-induced GR translocation”. Besides, the embryos lost in data set [1] is recorded as ~100%. The same molecule registered a CC50 in the data set on HG23 of 8.7 µM.

On to `CC#CC1(O)CCC2C3CCC4=CC(=NNC(N)=S)CCC4=C3C(c3ccc4c(c3)OCO4)CC21C.CC#CC1(O)CCC2C3CCC4=CC(=O)CCC4=C3C(c3ccc4c(c3)OCO4)CC21C.CC(C)=O.CCO.O` (stereo not drawn) [PT155, ⅓ (11β,17β)-17-Hydroxy-11-[3,4-(methylenedioxy)phenyl]-17-(1-propyn-1-yl)estra-4,9-dien-3-one (ORG34517)×(2EZ)-2-{(11β,17β)-17-hydroxy-11-[3,4-(methylenedioxy)phenyl]-17-(1-propyn-1-yl)estra-4,9-dien-3-ylidene}hydrazinecarbothioamide [71.8% (E), 28.2% (Z)] hemihydrate×¾% acetone× ⅛ ethanol], for which the “% VC” value is on record as 100.0% in the data set on HIV-1 LAV (0.01 μM); 107.7% in the data set on HIV-1 LAV (0.03 μM); 99.8% in the data set on HIV-1 LAV (0.10 μM); 82.2% in the data set on HIV-1 LAV (1.00 μM); 57.9% in the data set with HIV-1 LAV (3.16 μM); 28.9% in the data set on HIV-1 LAV (10.0 μM). Moreover, the “% VC” value in the data set with HIV-1 LAV (31.6 μM) is 15.8%; in the data set on HIV-1 LAV (100 μM) it was 0.8%. Besides, the “RT Values” was 32320 cpm and 29982 cpm and 29144 cpm in the data set with HIV-1 LAV (0.01 μM); 33018 cpm and 33056 cpm and 32387 cpm in the data set with HIV-1 LAV (0.03 μM); 29801 cpm and 29663 cpm and 31726 cpm with HIV-1 LAV (0.10 μM); 23474 cpm and 26693 cpm and 24955 cpm in the data set with HIV-1 LAV (1.00 μM); 16156 cpm and 21122 cpm and 15662 cpm in the data set on HIV-1 LAV (3.16 μM); 8592 cpm and 7827 cpm and 10011 cpm with HIV-1 LAV (10.0 μM). In addition, the “RT Values” in the data set with HIV-1 LAV (31.6 μM) was 4254 cpm and 4765 cpm and 5466 cpm. The IC50 (in general, the point on the concentration scale where inhibition reaches its midpoint) in the data set with HIV-1 LAV (OM-10.1) was found to be 4.33 µM. In the data set with HIV-1 LAV (OM-10.1), the IC90 (in general, the concentration at which the effect reaches the 90% level) was determined as 49.4 µM. Further, the “IC 95%” value with HIV-1 LAV (OM-10.1) was determined as 72.4 µM. The EC50 (usually the concentration that produces a half-maximal response) with HIV-1 LAV (OM-10.1, Table 7, read-out: EC50) was 4.33 µM. The 90% effect concentration (EC90) (as a rule, the concentration at which the effect reaches the 90% level) with HIV-1 LAV (OM-10.1, Table 7, read-out: EC90) is 49.4 µM.
